Reference: patent US20150209426A1, “TREATMENT OF CANCER” (Boehringer Ingelheim International GmbH, priority 2014, published 2015)

Key:
[1] = system: hormone refractory, hormone receptor-positive, HER2-negative metastatic breast cancer; conditions: hormone refractory HR+, HER2-negative metastatic breast cancer patients; cited from earlier work
MCF7aro cells = experiment: Cell proliferation assay of adherently growing MCF7aro breast cancer cells (AlamarBlue cell viability); format: cell-based, human; conditions: 6 days of incubation, mean of three independent experiments, everolimus up to 50 nM, exemestane up to 200 nM, triple combination with fixed 10 nM IGF Ab 60833
Procedure: Three independent experiments were conducted to determine the anti-proliferative effect of IGF Ab 60833 in combination with everolimus and exemestane in MCF7aro breast cancer cells. Cell proliferation and viability following 6 days of incubation with test compounds was determined using an assay that monitors the reducing environment of the living cells in each assay well.
For cell proliferation assays and Western Blot analysis the cells were steroid-deprived for 72 h by cultivation in starvation medium (MEM alpha without phenol red, supplemented with 10% charcoal stripped FBS, 2 mM GlutaMAX and 1 mM sodium pyruvate). […]
The final concentration of the solvent DMSO in the test wells was 0.1%. Everolimus and exemestane were tested at 5 concentrations, each measured in duplicate wells, as single agents or in combination.
After 2 days of incubation with test compounds in a humidified incubator at 37° C. and 5% CO2, medium was changed to fresh assay medium and compounds were added again. […] Total fluorescence intensity of each well was then measured in a Wallac VICTOR Multilabel Counter using an excitation wavelength of 544 nm and measuring emission at 590 nm.
At the time of test compound addition, “time zero” (t=0) untreated cell plates were stained with AlamarBlue® Cell Viability Reagent. […] After incubation for 6 hours at 37° C. and 5% CO2, total fluorescence intensity was measured. […]

[2] = system: AKT and S6 phosphorylation in MCF7aro cells; experiment: Western blot assessment of AKT and S6 phosphorylation status in MCF7aro cell lysates; format: cell-based, human; conditions: 24 hours, 100 nM IGF Ab 60833, 0.32 nM everolimus, versus vehicle (DMSO) control
Procedure: 1.8×10^6 MCF7aro cells were plated in 10 cm dishes in starvation medium (MEM alpha without phenol red, supplemented with 10% charcoal stripped FBS, 2 mM GlutaMAX and […]). After overnight incubation, medium was changed to assay medium (MEM alpha without phenol red, supplemented with 10% charcoal stripped FBS, 2 mM GlutaMAX, 1 mM sodium pyruvate and 1 nM androstenedione) and the cells were treated with 100 nM of IGF Ab 60833 or 0.32 nM of everolimus or a combination of antibody and mTORC1 inhibitor. As a control, cells were treated with vehicle (DMSO) only. At 24 h post treatment, the cells were lysed on ice with MSD Tris Lysis Buffer containing 20 mM Tris pH 7.5, 150 mM NaCl, 1 mM EDTA, 1 mM EGTA, 1% Triton X-100, completed with protease and phosphatase inhibitor cocktails. Prior to use, freshly prepared 2 mM PMSF was added to the buffer.
(§1) Total protein was isolated and protein concentration was quantified by Bradford protein assay according to the manufacturer's instructions. […]
The effect of IGF Ab 60833 and everolimus, as single agents and in combination, on the phosphorylation of AKT at serine 473 (pAKT S473) and threonine 308 (pAKT T308), and of S6 (pS6) at serine 235/236 was monitored by Western blot analysis of MCF7aro cell lysates prepared 24 hours post treatment.

[3] = system: cleaved PARP in MCF7aro cells; experiment: Cleaved PARP (apoptosis) in MCF7aro cell lysates by Western blot and MSD Apoptosis Panel; format: cell-based, human; conditions: 72 h, 1 μM of each agent, versus vehicle-treated control
Procedure: 1.5×10^6 MCF7aro cells were plated in 10 cm dishes in starvation medium (MEM alpha without phenol red, supplemented with 10% charcoal stripped FBS, 2 mM GlutaMAX and 1 mM sodium pyruvate). After overnight incubation, medium was changed to assay medium (MEM alpha without phenol red, supplemented with 10% charcoal stripped FBS, 2 mM GlutaMAX, 1 mM sodium pyruvate and 1 nM androstenedione) and the cells were treated with vehicle (DMSO), or 1 μM of IGF Ab 60833, or 1 μM exemestane, or 1 μM everolimus, or a combination of exemestane and everolimus, or a combination of all three inhibitors. At 72 h post treatment, the cells were lysed on ice with MSD Tris Lysis Buffer containing 20 mM Tris pH 7.5, 150 mM NaCl, 1 mM EDTA, 1 mM EGTA, 1% Triton X-100, completed with protease and phosphatase inhibitor cocktails. Prior to use, freshly prepared 2 mM PMSF was added to the buffer.
as §1
Cells lysates were prepared according to the Meso Scale Discovery cell lysis protocol. 20 μg of clarified lysate was analyzed in duplicates with MSD Apoptosis Panel Whole Cell Lysate Kit, measuring cleaved PARP signals, according to the manufacturer's instructions. Plates were read on the SECTOR Imager 6000 plate reader.

[4] = system: advanced hormone receptor-positive, HER2-negative breast cancer; conditions: cited from earlier work

Structure (SMILES)	time to progression (PFS) [1]	maximal mean CGI (cell growth inhibition) (MCF7aro cells)	pAKT S473 and T308 levels by Western blot [2]	pS6 (S235/236) signal by Western blot [2]	levels of cleaved PARP (marker for apoptosis) [3]	median progression-free survival ([4]; by local investigator assessment)	overall response rate ([4]; in vivo)
CC/C(=C(\c1ccccc1)c1ccc(OCCN(C)C)cc1)c1ccccc1 [tamoxifen]	4.5 months	–	–	–	–	–	–
CO[C@H]1C[C@@H]2CC[C@@H](C)[C@@](O)(O2)C(=O)C(=O)N2CCCC[C@H]2C(=O)O[C@H]([C@H](C)C[C@@H]2CC[C@@H](OCCO)[C@H](OC)C2)CC(=O)[C@H](C)/C=C(\C)[C@@H](O)[C@@H](OC)C(=O)[C@H](C)C[C@H](C)/C=C/C=C/C=C/1C [everolimus]	–	47%	increased compared to the vehicle (DMSO)-treated control	reduced pS6 signal	comparable to or only marginally higher than the level in the vehicle-treated control	–	–
C=C1C[C@@H]2[C@H](CC[C@]3(C)C(=O)CC[C@@H]23)[C@@]2(C)C=CC(=O)C=C12 [exemestane, 6-Methylideneandrosta-1,4-diene-3,17-dione]	–	60%	–	–	comparable to or only marginally higher than the level in the vehicle-treated control	3.2 months	1.7%
